Results taken from US7598260B2, “CDK-inhibitory pyrimidines, their production and use as pharmaceutical agents” (Bayer Schering Pharma Aktiengesellschaft, priority 2001, dated 2009).
Like-named read-outs stand apart in the source and are kept apart here.

What was measured:
[1] = target: T1, CDK2/CycE (Homo sapiens, UniProt P24941); test: CDK2/CycE kinase assay (enzyme test); assay type: biochemical; conditions: read-out: Inhibition IC50 [nM] CDK2/CycE
T1 construct: GST; purchased Dr. Dieter Marmé, Klinik für Tumorbiologie, Freiburg; host or cells: baculovirus-infected Sf9 insect cells
Experimental: Recombinant CDK2- and CycE-GST-fusion proteins, purified from baculovirus-infected insect cells (Sf9), are obtained by Dr. Dieter Marmé, Klinik für Tumorbiologie [Clinic for Tumor Biology], Freiburg. Histone IIIS, which is used as a kinase substrate, is purchased by the Sigma Company.
The reaction was is stopped by adding EDTA solution (250 mmol, pH 8.0, 14 μl/measuring point).
From each reaction batch, 10 μl applied to P30 filter strips (Wallac Company), and non-incorporated ^33P-ATP is removed by subjecting the filter strips to three washing cycles for 10 minutes each in 0.5% phosphoric acid. After the filter strips are dried for one hour at 70° C., the filter were are covered with scintillator strips (MeltiLex™ A, Wallac Company) and baked for one hour at 90° C. The amount of incorporated ^33P (substrate phosphorylation) is determined by scintillation measurement in a gamma-radiation measuring device (Wallac).

[2] = test system: MCF-7 cells; test: Proliferation assay, crystal violet staining (cell test), MCF-7; assay type: cell-based; conditions: Homo sapiens
Experimental: (§1) Cultivated human tumor cells (as indicated) are flattened out at a density of 5000 cells/measuring point in a 96-hole multititer plate in 200 μl of the corresponding growth medium. After 24 hours, the cells of one plate (zero-point plate) are colored with crystal violet (see below), while the medium of the other plates is replaced by fresh culture medium (200 μl), to which the test substances are added at various concentrations (0 μm, as well as in the range of 0.01-30 μm; the final concentration of the solvent dimethyl sulfoxide is 0.5%). The cells are incubated for 4 days in the presence of test substances. The cell proliferation is determined by coloring the cells with crystal violet: the cells are fixed by adding 20 μl/measuring point of a 11% glutaric aldehyde solution for 15 minutes at room temperature. After three washing cycles of the fixed cells with water, the plates are dried at room temperature. The cells are colored by adding 100 μl/measuring point of a 0.1% crystal violet solution (pH is set at 3 by adding acetic acid). After three washing cycles of the colored cells with water, the plates are dried at room temperature. The dye is dissolved by adding 100 μl/measuring point of a 10% acetic acid solution. The extinction is determined by photometry at a wavelength of 595 nm. The change of cell growth, in percent, is calculated by standardization of the measured values to the extinction values of the zero-point plate (=0%) and the extinction of the untreated (0 μm) cells (=100%).

[3] = Solubility (Löslichkeit, g/l); assay type: physicochemical
[4] = test system: human tumor cells (as indicated); test: Proliferation assay, crystal violet staining, other human tumor cells as indicated in the tables; assay type: cell-based; conditions: 4 days incubation
Experimental: as §1

[5] = 96 h, MCF7 cells, 4 days incubation, read-out: Proliferation IC50 [μM] MCF7
[6] = MCF7, MCF-7 cells, comparison with known compounds, read-out: MCF-7 IC50
[7] = DU-145, 96 h, DU145 cells, read-out: Proliferation IC50 [μM] DU145
[8] = HCT-116, 96 h, HCT116 cells, read-out: Proliferation IC50 [μM] HCT116
[9] = NCI-H460, 96 h, H460 cells, read-out: Proliferation IC50 [μM] H460

IC50 [1] [nM]	IC50 [2, 5] [µM]	Sw [3] [g/L]	SMILES	further results
300	8	–	COC[C@H](C)Nc1nc(Nc2ccc(O)cc2)ncc1Br [Example 1]	–
300	3	–	C#CCNc1nc(Nc2ccc(SC)cc2)ncc1Br [Example 16, 5-Bromo-N2-(4-methylthiophenyl)-N4-2-propynyl-2,4-pyrimidine diamine]	–
300	1.6	0.026	CC(=O)c1ccc(Nc2ncc(Br)c(N[C@H](CO)C(C)C)n2)cc1 [Example 53]	–
200	8	0.039	OCC(CO)Nc1nc(Nc2ccc(O)cc2)ncc1Br [Example 3]	–
300	> 10	0.024	CSc1ccc(Nc2ncc(Br)c(N[C@@H](CO)C(C)C)n2)cc1 [Example 15]	–
700	–	–	Oc1ccc(Nc2ncc(Br)c(NCCN3CCOCC3)n2)cc1 [Example 2]	–
400	4	–	COC[C@H](C)Nc1nc(Nc2ccc(SC)cc2)ncc1Br [Example 12]	–
150	–	–	C#CCNc1nc(Nc2ccc(C(C)=O)cc2)ncc1Br [Example 50, 1-[4-[(5-Bromo-4-(2-propynylamino)-2-pyrimidinyl)amino]phenyl]-ethanone]	–
180	3	–	C#CCNc1nc(Nc2ccc(SC(F)F)cc2)ncc1Br [Example 23, 5-Bromo-N2-(4-difluoromethylthiophenyl)-N4-2-propynyl-2,4-pyrimidine diamine]	–
80	4	0.023	CC(=O)c1ccc(Nc2ncc(Br)c(N[C@@H](CO)C(C)C)n2)cc1 [Example 56]	–
200	3	0.013	CSc1ccc(Nc2ncc(Br)c(NC(CO)CO)n2)cc1 [Example 14]	–
40	8	0.042	CC(C)[C@H](CO)Nc1nc(Nc2ccc(O)cc2)ncc1Br [Example 4]	–
90	10	0.043	C#CCNc1nc(Nc2ccc(O)cc2)ncc1Br [Example 5, 4-[[5-Bromo-4-(2-propynylamino)-2-pyrimidinyl]amino]-phenol]	–
800	> 10	0.041	O=S(=O)(CCO)c1cccc(Nc2ncc(Br)c(NC(CO)CO)n2)c1 [Example 19]	–

The next lines start with the compound.

SMILES	IC50 [1] [nM]	IC50 [2, 5] [µM]	Sw [3] [g/L]	further results
COC[C@H](C)Nc1nc(Nc2cccc(S(=O)(=O)CCO)c2)ncc1Br [Example 17]	1000	> 10	0.04	–
C#CCNc1nc(Nc2ccc(S(N)(=O)=O)cc2)ncc1Br [Example 11]	6	0.2	–	IC50 [2, 6]: 0.2 µM; IC50 [4, 7]: 0.2 µM; IC50 [4, 8]: 0.3 µM; IC50 [4, 9]: 0.5 µM
C#CCNc1nc(Nc2cccc(S(=O)(=O)C(F)(F)F)c2)ncc1Br [Example 27]	> 10000	–	–	–
CC(C)[C@H](CO)Nc1nc(Nc2ccc(S(N)(=O)=O)cc2)ncc1Br [Example 10]	4	0.2	–	IC50 [4, 7]: 0.5 µM; IC50 [4, 8]: 0.5 µM; IC50 [4, 9]: 0.5 µM
C#CCOc1nc(Nc2ccc(OCC(O)CN3CCN(Cc4ccc5c(c4)OCO5)CC3)cc2)ncc1Br (centres unmarked) [Example 96]	400	–	–	–
NS(=O)(=O)c1ccc(Nc2ncc(Br)c(NCCN3CCOCC3)n2)cc1 [Example 8]	< 10	4	0.007	–
C#CCNc1nc(Nc2cccc(S(=O)(=O)CCO)c2)ncc1Br [Example 21]	400	2	–	–
NS(=O)(=O)c1ccc(Nc2ncc(Br)c(OCCCC(F)(F)F)n2)cc1 [Example 47]	12	0.7	–	IC50 [4, 7]: 0.9 µM; IC50 [4, 8]: 1.3 µM; IC50 [4, 9]: 1.8 µM
CC(=O)c1ccc(Nc2ncc(Br)c(NCCc3c[nH]cn3)n2)cc1 [Example 87]	250	0.8	0.003	–
O=C1Cc2c([nH]c3ccc([N+](=O)[O-])cc23)-c2ccccc2N1 [Alsterpaullone, reference compound]	–	–	–	IC50 [2, 6]: 1.2 µM
CC(=O)c1ccc(Nc2ncc(Br)c(OCCCC(F)(F)F)n2)cc1 [Example 84]	400	–	0.0005	–
C#CCNc1nc(Nc2ccc3[nH]ncc3c2)ncc1Br [Example 37, N-[5-Bromo-4-(2-propynylamino)-2-pyrimidinyl]-indazol-5-amine]	70	4	0.006	–
C#CCNc1nc(Nc2cccc(SC)c2)ncc1Br [Example 26]	300	3	–	–
O=S(=O)(CCO)c1cccc(Nc2ncc(Br)c(NCCN3CCOCC3)n2)c1 [Example 18]	2000	–	0.039	–
CCOCCOCCOc1nc(Nc2ccc(C(C)=O)cc2)ncc1Br [Example 86]	3000	–	–	–
CC(C)[C@H](CO)Nc1nc(Nc2cccc(Cl)c2)c2ncn(C(C)C)c2n1 [Purvalanol A, reference compound]	–	–	–	IC50 [2, 6]: 2 µM

SMILES	IC50 [1] [nM]	IC50 [2, 5] [µM]	Sw [3] [g/L]	further results
Cn1cnc2c(NCc3ccccc3)nc(NCCO)nc21 [Olomoucine, reference compound]	–	–	–	IC50 [2, 6]: 30 µM
CCOC(=O)CCCNc1nc(Nc2ccc(C(C)=O)cc2)ncc1Br [Example 85]	2000	–	0.001	–
C#CCNc1nc(Nc2cccc(S(=O)(=O)NCCCC)c2)ncc1Br [Example 34]	1800	–	–	–
C#CCNc1nc(Nc2ccc(CP(=O)(OCC)OCC)cc2)ncc1Br [Example 31]	800	7	0.0023	–
C#CCNc1nc(Nc2cccc(SC(F)(F)F)c2)ncc1Br [Example 35, 5-Bromo-N4-2-propynyl-N2-(3-trifluoromethylthiophenyl)-2,4-pyrimidine diamine]	120	> 10	–	–
C#CCNc1nc(Nc2ccc3c(c2)CCN3S(C)(=O)=O)ncc1Br [Example 39]	300	–	0.0016	–
C#CCOc1nc(Nc2ccc(OCC(O)CN3CCN(c4ccccc4C#N)CC3)cc2)ncc1Br (centres unmarked) [Example 98]	2000	–	–	–
C#CCOc1nc(Nc2cccc(O)c2)ncc1Br [Example 20]	60	4	–	–
O=C1Cc2c([nH]c3ccc(Br)cc23)-c2ccccc2N1 [Kenpaullone, reference compound]	–	–	–	IC50 [2, 6]: 6 µM
C#CCNc1nc(Nc2ccc3scnc3c2)ncc1Br [Example 38, N-[5-Bromo-4-(2-propynylamino)-2-pyrimidinyl]-benzothiazole-5-amine]	80	> 10	–	–
NS(=O)(=O)c1ccc(Nc2ncc(Br)c(NCCCC(=O)O)n2)cc1 [Example 49]	50	> 10	0.044	–
CSc1ccc(Nc2ncc(Br)c(NCCN3CCOCC3)n2)cc1 [Example 13]	2000	> 10	–	–
NS(=O)(=O)c1ccc(Nc2ncc(Br)c(NCC3CC3)n2)cc1 [Example 46]	7	2	0.0069	–
C#CCOc1nc(Nc2cccc(OCC3CO3)c2)ncc1Br (centres unmarked) [Example 51]	70	8	–	–
C#CCNc1nc(Nc2ccc(SC(F)(F)F)cc2)ncc1Br [Example 24, 5-Bromo-N4-2-propynyl-N2-(4-trifluoromethylthiophenyl)-2,4-pyrimidine diamine]	400	5	–	–
